Results: article PMC12516686, “Design of 2‑Aminobenzothiazole Derivatives Targeting Trypanosomatid PTR1 by a Multidisciplinary Fragment Hybridization Approach” (Journal of Medicinal Chemistry, 2025)
Like-named read-outs stand apart in the source and are kept apart here.

How the values were obtained:
[1] = system: Trypanosoma brucei brucei L427 wild-type (WT) bloodstream forms; assay: Activity against T. brucei (resazurin-based assay); format: cell-based; settings: Trypanosoma brucei; for inhibition at 10 µM: read-out: T. brucei % cell growth inhibition
Protocol: The parasites were grown in 5 mL T25 ventilated flasks containing complete HMI-9 medium. The medium was supplemented with 10% heat-inactivated FBS and 100 IU/mL penicillin/streptomycin. To maintain the cultures, subpassages were performed every 2 days at a concentration of 1 × 10^4 cells/mL.
The efficacy of the compounds against Trypanosoma brucei brucei L427 wild-type (WT) bloodstream forms was assessed using a resazurin-based assay as described elsewhere. T. b. brucei L427 bloodstream forms were prepared at a cell density of 5 × 10^3 cells/mL in supplemented complete medium. Serial dilutions of the test compounds were prepared in a final volume of 100 μL, and 100 μL of the parasite suspension was added to each well containing the compound dilutions, resulting in a total volume of 200 μL per well. A dose–response curve for pentamidine was included as a quality control in each assay, and each condition was tested in duplicate. The plates were incubated for 72 h under the specified conditions for the parasite. After the incubation period, 20 μL of a 0.5 mM resazurin solution was added to each well, and the plates were incubated for an additional 4 h under the same conditions. Fluorescence was measured at an excitation wavelength of 544 nm and an emission wavelength of 590 nm using a Synergy 2 Multi-Mode Reader (Biotek, Winooski, VT, USA). The results were expressed as the percentage of parasite growth inhibition compared to the control (untreated parasites) and represented the average of at least three independent experiments.

[2] = system: L. infantum intracellular amastigotes; assay: Activity against L. infantum intracellular amastigotes (luciferase); format: cell-based, Leishmania infantum; settings: for inhibition at 10 µM: Leishmania infantum, read-out: L. infantum % cell growth inhibition
Protocol: Luciferase-expressing L. infantum (MHOM/MA/67/ITMAP-263) axenic amastigotes were cultured in MAA/20 medium at 37 °C with 5% CO2. The parasites were maintained in 5 mL T25 ventilated flasks and subcultured every 7 days at a concentration of 1 × 10^6 cells/mL.
The activity against Leishmania infantum intracellular amastigotes was evaluated following the method described with modifications. THP-1 cells were differentiated into macrophages with PMA as described above. The cells were then infected with L. infantum axenic amastigotes expressing episomal luciferase at a macrophage-to-amastigote ratio of 1:10 for 4 h at 37 °C and 5% CO2. Noninternalized parasites were washed away, and compounds were added at various concentrations to a final volume of 100 μL. A dose–response curve for miltefosine was included in all assays as a quality control. Each condition was tested in quadruplicate. After 72 h of incubation, the medium was replaced with 100 μL of PBS, and 25 μL of Glo-lysis buffer from the Steady-Glo Luciferase Assay System (Promega, Madison, WI, USA) was added. The plates were agitated at 100 rpm for 10 min at room temperature. Subsequently, 30 μL of the Steady-Glo reagent (Promega, Madison, WI, USA) was added and incubated for 15 min in the dark under the same conditions. A total of 140 μL from each well was transferred to white-bottom 96-well plates, and luminescence intensity was measured using a Synergy 2 multimode reader (Biotek, Winooski, VT, USA). The antileishmanial effect was evaluated by comparison of the nontreated infected cells. The IC50 was determined (for miltefosine) through nonlinear regression analysis using GraphPad Prism version 8.1.1 for Windows (GraphPad Software, San Diego, CA, USA). Results represent the average of at least three independent experiments.

CYP1A2 = biological target: T1, CYP1A2 (Homo sapiens, UniProt P05177); assay: Cytochrome P450 assay (P450-Glo), isoform 1A2; format: in vitro ADME
T1 construct: purchased Promega; host or cells: baculovirus-infected insect cells
T1 sequence (P05177 1-516): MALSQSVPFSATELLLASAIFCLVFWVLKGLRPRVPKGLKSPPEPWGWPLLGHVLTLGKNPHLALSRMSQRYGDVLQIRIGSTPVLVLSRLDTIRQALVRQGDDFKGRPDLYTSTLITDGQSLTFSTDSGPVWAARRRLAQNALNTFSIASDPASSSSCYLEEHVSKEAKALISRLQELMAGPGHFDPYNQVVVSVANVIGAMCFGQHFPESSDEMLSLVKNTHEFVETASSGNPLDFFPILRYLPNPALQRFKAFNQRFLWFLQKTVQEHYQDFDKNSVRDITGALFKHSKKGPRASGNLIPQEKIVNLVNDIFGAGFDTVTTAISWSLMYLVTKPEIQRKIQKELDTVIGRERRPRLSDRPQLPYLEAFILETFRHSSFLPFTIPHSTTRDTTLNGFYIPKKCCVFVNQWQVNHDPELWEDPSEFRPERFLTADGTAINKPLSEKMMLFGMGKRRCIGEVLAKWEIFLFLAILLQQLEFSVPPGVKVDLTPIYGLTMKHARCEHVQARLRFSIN
Excerpt: (§1) 3A4. The Promega P450-Glo assay platform was used with microsomal preparations of
(§2) cytochrome P450s from baculovirus-infected insect cells. […]

CYP2D6 = biological target: T2, CYP2D6 (Homo sapiens, UniProt P10635); assay: Cytochrome P450 assay (P450-Glo), isoform 2D6; format: in vitro ADME
T2 construct: purchased Promega; host or cells: baculovirus-infected insect cells
Excerpt: as §1, §2

[3] = Cytotoxicity against A549 cells (CellTiter-Glo); format: cell-based; settings: human, A549 cells; for GI50: read-out: A549 cytotoxicity GI50 (50% growth inhibition)
Protocol: (§3) Cytotoxicity against A549 cells. The CellTiter-Glo assay from Promega was used. It detects the cellular ATP content, which is directly proportional to the number of viable cells. The A549 cells were obtained from DSMZ (German Collection of Microorganisms and Cell Cultures, Braunschweig, Germany) and cultured in Dulbecco’s modified Eagle medium (DMEM) with FCS (10% v/v), streptomycin (100 µg/mL), and penicillin G (100 U/mL)23. […]

A549 cells = assay: Cytotoxicity against A549 cells (CellTiter-Glo); format: cell-based
Protocol: as §3

[4] = read-out: 95% confidence interval for EC50 (T. brucei)
[5] = read-out: T. brucei EC50 (converted)
[6] = at 10 μM, intracellular amastigotes

T2 sequence (P10635 whole entry, canonical isoform): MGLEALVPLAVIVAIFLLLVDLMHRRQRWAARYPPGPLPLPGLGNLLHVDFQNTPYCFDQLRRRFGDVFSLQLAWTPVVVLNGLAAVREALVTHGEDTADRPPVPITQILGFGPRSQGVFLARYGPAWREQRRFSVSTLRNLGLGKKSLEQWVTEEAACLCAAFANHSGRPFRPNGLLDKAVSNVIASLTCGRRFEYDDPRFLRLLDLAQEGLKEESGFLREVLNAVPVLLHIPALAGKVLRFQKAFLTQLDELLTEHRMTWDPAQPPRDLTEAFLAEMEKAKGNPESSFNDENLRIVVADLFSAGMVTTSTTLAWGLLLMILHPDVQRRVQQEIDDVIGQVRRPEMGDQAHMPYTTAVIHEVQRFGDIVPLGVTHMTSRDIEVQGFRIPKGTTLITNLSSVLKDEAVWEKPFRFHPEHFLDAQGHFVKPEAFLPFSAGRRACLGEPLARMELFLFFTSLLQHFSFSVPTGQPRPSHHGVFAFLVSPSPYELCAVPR

SMILES	inhibition at 10 µM ([1]; at 10 μM) [%]	EC50 [1, 4] [µM]	EC50 [1, 5] [µM]	inhibition at 10 µM [2, 6] [%]	L. infantum % cell growth inhibition [2, 6]	CYP 1A2 IC50 (CYP1A2)	IC50 (CYP2D6) [µM]	GI50 [3] [µM]	A549 cytotoxicity LC50 (50% lethal concentration) (A549 cells)	A549 cytotoxicity TGI (total growth inhibition) (A549 cells)	LC50 (50% lethal concentration) [3] [µM]	IC50 (CYP1A2) [µM]	activity at 10 µM (CYP1A2; human, at 10 µM compound concentration, read-out: CYP 1A2 % residual activity) [%]	activity at 10 µM (CYP2D6; human, at 10 µM compound concentration, read-out: CYP 2D6 % residual activity) [%]	activity at 10 µM (A549 cells; Homo sapiens, A549, at 10 µM compound concentration, printed in GI50 column, read-out: A549 % residual activity) [%]	CYP 2D6 IC50 (CYP2D6)	A549 cytotoxicity GI50 (50% growth inhibition) (A549 cells)	inhibition at 10 µM [1] [%]	inhibition at 10 µM [2] [%]
Nc1nc2ccc(C(=O)NCCc3ccc(Cl)c(Cl)c3)cc2s1 [Compound 1a, 2-amino-N-(3,4-dichlorophenethyl)benzo[d]thiazole-6-carboxamide]	100	2.83 to 3.37	3.1	< 0	inactive	max	0.1	27	max	54.4 µM	–	–	–	–	–	–	–	–	–
Nc1nc2ccc(C(=O)N(CCc3ccc(Cl)c(Cl)c3)C3CC3)cc2s1 [Compound 1b, 2-amino-N-cyclopropyl-N-(3,4-dichlorophenethyl)benzo[d]thiazole-6-carboxamide]	97	4.45 to 5.88	5	~50	46±13%	max	0.9	13.8	max	54.6 µM	–	–	–	–	–	–	–	–	–
Nc1nc2ccc(C(=O)N(Cc3ccc(Cl)c(Cl)c3)C3CC3)cc2s1 [Compound 1c, 2-amino-N-cyclopropyl-N-(3,4-dichlorobenzyl)benzo[d]thiazole-6-carboxamide]	18 ± 8	–	–	24 ± 3	–	max	2.5	24.6	–	61.3 µM	100	–	–	–	–	–	–	–	–
Nc1nc2ccc(CN(Cc3ccc(Cl)c(Cl)c3)C3CC3)cc2s1 [Compound 1d, 6-((cyclopropyl(3,4-dichlorobenzyl)amino)methyl)benzo[_d_]thiazol-2-amine]	59 ± 2	–	–	< 0	–	–	2.5	12.6	–	34.4 µM	63.1	67.1	–	–	–	–	–	–	–
Nc1nc2ccc(C(=O)N(CCc3ccc(Cl)c(Cl)c3)c3ccccc3)cc2s1 [Compound 1e, 2-amino-N-(3,4-dichlorophenethyl)-N-phenylbenzo[d]thiazole-6-carboxamide]	31	–	–	< 0	–	–	–	–	–	–	–	–	37.7	59.9	103	–	–	–	–
Nc1nc2ccc(C(=O)NCCc3ccccc3)cc2s1 [Compound 2a, 2-amino-N-phenethylbenzo[d]thiazole-6-carboxamide]	27	–	–	< 0	–	–	–	–	max	max	–	100	–	–	–	max	max	–	–
Nc1nc2ccc(C(=O)NCCc3cccc(Cl)c3)cc2s1 [Compound 2b, 2-amino-N-(3-chlorophenethyl)benzo[d]thiazole-6-carboxamide]	–	–	–	–	–	max	0.9	54.5	max	95.9 µM	–	–	–	–	–	–	–	51	< 0
Nc1nc2ccc(C(=O)NCCc3ccc(Cl)cc3)cc2s1 [Compound 2c, 2-amino-N-(4-chlorophenethyl)benzo[d]thiazole-6-carboxamide]	27	–	–	< 0	–	max	0.5	–	max	max	–	–	–	–	–	–	max	–	–
Nc1nc2ccc(C(=O)NCCc3cccc(Br)c3)cc2s1 [Compound 2d, 2-amino-N-(3-bromophenethyl)benzo[d]thiazole-6-carboxamide]	39 ± 5	–	–	< 0	–	max	5	60.4	max	85.5 µM	–	–	–	–	–	–	–	–	–
Nc1nc2ccc(C(=O)NCCc3ccc(Br)cc3)cc2s1 [Compound 2e, 2-amino-N-(4-bromophenethyl)benzo[d]thiazole-6-carboxamide]	37	–	–	< 0	–	max	0.1	–	max	max	–	–	–	–	–	–	max	–	–
Nc1nc2ccccc2n1Cc1ccc(Cl)c(Cl)c1 [I, 1-(3,4-dichlorobenzyl)-1H-benzimidazol-2-amine, reference compound]	< 0	–	–	29 ± 2	–	–	–	–	–	–	–	29.9	–	–	–	–	–	–	–
